# Source: BindingDB's records for PubMed 8301592 (Washington University, 1994)
# “And” between values parts separate entries of the source, which are not always exact repeats. Equal entries are not always repeated.
# Molecular target: D(3) dopamine receptor (Rattus norvegicus, UniProt P19020)
# Sequence (P19020 whole entry): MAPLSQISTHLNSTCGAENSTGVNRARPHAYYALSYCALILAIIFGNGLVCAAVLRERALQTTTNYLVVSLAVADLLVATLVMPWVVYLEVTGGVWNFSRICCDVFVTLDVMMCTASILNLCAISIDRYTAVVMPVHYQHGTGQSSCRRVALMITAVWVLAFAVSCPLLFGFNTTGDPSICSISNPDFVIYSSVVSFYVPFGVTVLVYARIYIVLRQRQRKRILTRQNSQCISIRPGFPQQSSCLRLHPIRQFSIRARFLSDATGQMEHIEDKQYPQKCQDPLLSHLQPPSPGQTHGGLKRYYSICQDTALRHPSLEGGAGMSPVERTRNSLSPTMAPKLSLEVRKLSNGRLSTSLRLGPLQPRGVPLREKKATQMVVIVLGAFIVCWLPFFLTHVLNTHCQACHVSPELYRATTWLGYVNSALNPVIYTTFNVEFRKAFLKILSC
row,SMILES,Ki
1,CCc1cc(Cl)c(OC)c(C(=O)NC[C@@H]2CCCN2CC)c1O [3-Chloro-5-ethyl-N-((S)-1-ethyl-pyrrolidin-2-ylmethyl)-6-hydroxy-2-methoxy-benzamide],0.16 nM and 0.46 nM
2,Nc1nc2c(ncn2[C@@H]2O[C@H](COP(=O)(O)OP(=O)(O)NP(=O)(O)O)[C@@H](O)[C@H]2O)c(=O)[nH]1 [Guanylyl imidodiphosphate],264 nM and 617 nM
